US20080255213A1, “THIAZOLIDINONE AMIDES, THIAZOLIDINE CARBOXYLIC ACID AMIDES, AND SERINE AMIDES, INCLUDING POLYAMINE CONJUGATES THEREOF, AS SELECTIVE ANTI-CANCER AGENTS” (University of Tennessee Research Foundation, priority 2007, published 2008)

Columns and labels:
[1] = system: fibroblast cell line; test: Sulforhodamine B (SRB) cytotoxicity assay, fibroblast control; assay type: cell-based; settings: 48 h exposure, control for selectivity, value ± standard error, read-out: IC50 ± SEM Fibroblast (converted)
Procedure: (§1) Cytotoxicity of these newly synthesized compounds was examined in two human melanoma cell lines (SK-MEL-188 and WM-164) and in a fibroblast cell line. Activity on fibroblast cells was used as a control to determine the selectivity of these compounds against melanoma. Standard sulforhodamine B (SRB) assay was used. Cells were exposed to a wide range of concentrations for 48 h in round-bottom 96-well plates. Cells were fixed with 10% trichloroacetic acid and washed five times with water. After cells were air-dried overnight and stained with SRB solution, total proteins were measured at 560 nm with a plate reader. IC50 (i.e., concentration which inhibited cell growth by 50% of DMSO-treated controls) values were obtained by nonlinear regression analysis with GraphPad Prism (GraphPad Software, San Diego, Calif.).
(§2) The ability of thiazolidine derivatives to inhibit the growth of two melanoma cancer cell lines and fibroblast cells is summarized in Table 1. […] At this early stage, all compounds were used as a diastereomeric mixture if they contain chiral centers in order to select the most promising compounds for further development.

[2] = system: SK-MEL-188 melanoma cell line; test: Sulforhodamine B (SRB) cytotoxicity assay, SK-MEL-188; assay type: cell-based; settings: Homo sapiens, 48 h exposure, diastereomeric mixtures, value ± standard error, read-out: IC50 ± SEM SK-MEL-188 (converted)
Procedure: as §1, §2

[3] = system: melanoma cells; test: SRB cytotoxicity assay, statements not tied to one cell line; assay type: cell-based, human
Procedure: as §1, §2

[4] = system: WM-164 melanoma cell line; test: Sulforhodamine B (SRB) cytotoxicity assay, WM-164; assay type: cell-based; settings: Homo sapiens, WM164, 48 h exposure, diastereomeric mixtures, value ± standard error, read-out: IC50 ± SEM WM-164 (converted)
Procedure: as §1, §2

CNC(=O)c1cc(Oc2ccc(NC(=O)Nc3ccc(Cl)c(C(F)(F)F)c3)cc2)ccn1 [Sorafenib, reference compound]
IC50 [1]: > 100 µM | IC50 [2]: 4.3 ± 0.2 µM | selectivity: ratio of IC50 values for fibroblast cells over melanoma cells ([3]; fibroblast IC50 / melanoma IC50): > 25 | potency against melanoma cells relative to compound 317 (times less potent) ([3]; versus compound 317): about 10 times | IC50 [4]: 4.7 ± 0.3 µM
